The test system of this series is 60 human tumor cell line panel. Kind of series: NCI 60 cell line one-dose SRB primary anticancer assay. Type of series: cell-based. The settings on record: 60 cell lines assay in one dose, 10µM (title; head prints 10.0 mM), 48 h; for inhibition at 10 µM: Homo sapiens, read-out: MGI % (Mean growth inhibition percentage). As to the method:
A primary anticancer assay was performed for an approximately 60 human tumor cell line panel derived from nine neoplastic diseases, in accordance with the protocol of the Drug Evaluation Branch, National Cancer Institute, Bethesda, MD (Monks A. et al., J. Natl. Cancer Inst 1991, 83, 757-766; Boyd M.R. and Paull K.D., Drug. Dev. Res. 1995, 34, 91-109; Shoemaker R.H., Nat. Rev. Cancer 2006, 6, 813-823). Briefly, tested compounds were added to the culture at a single concentration (10^-5M), and the cultures were incubated for 48 h. End point determinations were made with a protein binding dye, sulforhodamine B (SRB). The results for each tested compound were reported as the growth percentage of the treated cells when compared to that of the untreated control cells. The percentage growth was evaluated spectrophotometrically versus controls not treated with test agents.

Take `O=C(O)c1cn(C2CC2)c2cc(N3CCNCC3)c(F)cc2c1=O` [Ciprofloxacin (b), Ciprofloxacin, reference compound]: the “Most sensitive cell lines” value is “Renal Cancer (UO-31, A498)”; the “PCE (Positive cytotoxic effect: ratio between number of cell lines with percentage growth inhibition from 10 to >100 and total number of cell lines)” value was 2/57; the “RGI % (Range of growth inhibition percentage)” value is 28.85 to 13.76%; the inhibition at 10 µM is -1.41%.

With `COc1ccc(S(=O)(=O)N2CCN(c3cc4c(cc3F)c(=O)c(C(=O)O)cn4C3CC3)CC2)c(OC)c1` [Compound 5b], the “Most sensitive cell lines” value is given as “Leukemia (CCRF-CEM, HL-60(TB), K-562, MOLT-4, PRMI-8226, SR), NSC Lung Cancer (HOP-62, NCI-H226), CNS Cancer (SF-268, SF-539, SNB-19, SNB-75), Melanoma (LOX IMVI, SK-MEL-5, UACC-62), Renal Cancer (A498, UO-31), Breast Cancer (T-47D, MDA-MB-468)”; the “PCE (Positive cytotoxic effect: ratio between number of cell lines with percentage growth inhibition from 10 to >100 and total number of cell lines)” value was 19/58; the “RGI % (Range of growth inhibition percentage)” value lay within 46.83 to 10.48%; the inhibition at 10 µM turned out to be 7.33%.

Consider `O=C(O)c1cn(C2CC2)c2cc(N3CCN(CCCN4C(=O)c5ccccc5C4=O)CC3)c(F)cc2c1=O` [Compound 10b], for which the “Most sensitive cell lines” value is reported as “Leukemia (CCRF-CEM, PRMI-8226), Renal Cancer (UO-31)”; the “PCE (Positive cytotoxic effect: ratio between number of cell lines with percentage growth inhibition from 10 to >100 and total number of cell lines)” value is 3/57; the “RGI % (Range of growth inhibition percentage)” value was 38.76 to 13.64%; the inhibition at 10 µM is -4.16%.

Take `CCn1cc(C(=O)O)c(=O)c2cc(F)c(N3CCN(S(=O)(=O)c4ccc(OC)c(OC)c4)CC3)cc21` [Compound 4a]: the “Most sensitive cell lines” value was “Leukemia (MOLT-4, SR), CNS Cancer (SF-268, SNB-75) Melanoma (LOX IMVI, M14), Renal Cancer (UO-31), Prostate Cancer (PC-3), Breast Cancer (T-47D)”; the “PCE (Positive cytotoxic effect: ratio between number of cell lines with percentage growth inhibition from 10 to >100 and total number of cell lines)” value is 9/58; the inhibition at 10 µM was found to be 2.33%.

On to `O=C(O)c1cn(C2CC2)c2cc(N3CCN(S(=O)(=O)c4ccc(Cl)cc4)CC3)c(F)cc2c1=O` [Compound 1b], for which the “Most sensitive cell lines” value is given as “Melanoma (LOX IMVI, M14), Renal Cancer (A498, CAKI-1, UO-31), Prostate Cancer (PC-3), Breast Cancer (T-47D)”; the “PCE (Positive cytotoxic effect: ratio between number of cell lines with percentage growth inhibition from 10 to >100 and total number of cell lines)” value is 7/53; the “RGI % (Range of growth inhibition percentage)” value fell in the range of 59.75 to 10.12%; the inhibition at 10 µM worked out at 3.5%.

As for `COc1ccc(S(=O)(=O)N2CCN(c3cc4c(cc3F)c(=O)c(C(=O)O)cn4C3CC3)CC2)cc1OC` [Compound 4b], the “Most sensitive cell lines” value is recorded as “NSC Lung Cancer (HOP-62, HOP-92), CNS Cancer (SNB-75), Melanoma (LOX IMVI), Renal Cancer (UO-31), Breast Cancer (T-47D)”; the “PCE (Positive cytotoxic effect: ratio between number of cell lines with percentage growth inhibition from 10 to >100 and total number of cell lines)” value was 6/58; the “RGI % (Range of growth inhibition percentage)” value is on record as 35.09 to 10.43%; the inhibition at 10 µM turned out to be 1.84%.

Take `O=C(O)c1cn(C2CC2)c2cc(N3CCN(CCN4C(=O)c5ccccc5C4=O)CC3)c(F)cc2c1=O` [Compound 9b]: the “Most sensitive cell lines” value was “CNS Cancer (SNB-75), Renal Cancer (UO-31), Breast Cancer (MCF7)”; the “PCE (Positive cytotoxic effect: ratio between number of cell lines with percentage growth inhibition from 10 to >100 and total number of cell lines)” value is 3/58; the “RGI % (Range of growth inhibition percentage)” value was in the range of 36.83 to 13.18%; the inhibition at 10 µM was -2.69%.

Take `O=C(O)c1cn(C2CC2)c2cc(N3CCN(CCN4CCOCC4)CC3)c(F)cc2c1=O` [Compound 8b]: the “Most sensitive cell lines” value was “NSC Lung Cancer (HOP-92, NCI-H522), Melanoma ( MALME-3M), Renal Cancer (UO-31), Prostate Cancer (PC-3)”; the “PCE (Positive cytotoxic effect: ratio between number of cell lines with percentage growth inhibition from 10 to >100 and total number of cell lines)” value was 5/57; the “RGI % (Range of growth inhibition percentage)” value fell in the range of 24.51 to 10.05%; the inhibition at 10 µM is -2.2%.
